In this assay the test system is Streptococcus pyogenes (ATCC# 97-03 14289). The experiment in a line: Anti-microbial screen (growth inhibition, OD 570 nm). The class given is cell-based. Particulars: growth in Todd Hewitt Broth, plates read at 570 nm at 0 time and 4 hours, color corrected. The procedure: Streptococcus pyogenes (ATCC# 97-03 14289) was grown in Todd Hewitt Broth (THB) (Difco Laboratories #0492-17-6) overnight until reaching an optical density of (OD=0.636 @ 570 nm) by reading 0.1 ml in a 96 well microtiter plate in a Molecular Devices Thermomax. This preparation was kept frozen as stocks in 30% v/v glycerol in 1.5 ml aliquots at −70^mC. until use. Prior to experiments, […] aliquots were thawed and diluted into 50 ml 2×THB. 60 ul of this dilution was added to 92 wells of microtiter plate. To three wells THB (200 ul) was added to serve as a blank and a sterility control. Test compounds in DMSO and appropriate concentrations of DMSO were added to Growth/Solvent Controls at 0 time. Plates were read at 0 time at 570 nm in the Molecular Devices plate reader to obtain compounds correction factors for insoluble or colored compounds. Plates were read again at 4 hours.
Percent inhibition is calculated with the following formulae: [drawing 4]
Color correct=O.D. 0 hr−Blank 0 hr)−(Solvent Control 0 hr−Blank 0 hr)
% Inhibition=100−O.D. test compound 4 hr−Blank 4 hr−color correct O.D. growth/solvent control 4 hr−Blank 4 hr
Take `CSc1ccccc1C(=O)N1CCc2c(sc(NC(=O)CC(C)CC(C)(C)C)c2C(=O)O)C1` (stereo not drawn): the % Inhibition (usually how much of the control response was suppressed) is listed as 95.62%.
In the case of `CCC(C(=O)Nc1sc2c(c1C(=O)O)CCN(C(=O)c1cc3ccccc3s1)C2)c1ccccc1` (stereo not drawn) it was 66.79%; in that of `CC(C)(C)c1ccc(C(=O)Nc2sc3c(c2C(=O)O)CCN(C(=O)CCc2ccc(F)c(F)c2)C3)cc1`, 69.4%; in that of `CCCc1ccc(C(=O)Nc2sc3c(c2C(=O)O)CCN(C(=O)C2CCCCC2)C3)cc1`, 66.83%.
With `COc1cccc(C(=O)N2CCc3c(sc(NC(=O)c4ccccc4Cl)c3C(=O)O)C2)c1OC`, the “% Inhibition” value is recorded as 60.53%.
The result for `COc1cccc(C(=O)Nc2sc3c(c2C(=O)O)CCN(C(=O)c2cc4ccccc4s2)C3)c1` reads 63.77%.
The result for `CCCc1ccc(C(=O)Nc2sc3c(c2C(=O)O)CCN(C(=O)c2ccccc2C(F)(F)F)C3)cc1` reads 64.51%; that for `CCCc1ccc(C(=O)Nc2sc3c(c2C(=O)O)CCN(C(=O)CCc2ccc(F)c(F)c2)C3)cc1`, 89.36%; that for `CCC(C(=O)Nc1sc2c(c1C(=O)O)CCN(C(=O)c1ccccc1SC)C2)c1ccccc1` (stereo not drawn), 68.58%.
In the case of `CSc1ccccc1C(=O)N1CCc2c(sc(NC(=O)c3ccc(C(C)(C)C)cc3)c2C(=O)O)C1` it was 64.48%; in that of `O=C(CCC1CCCC1)Nc1sc2c(c1C(=O)O)CCN(C(=O)/C=C/c1ccc(Cl)cc1)C2`, 67.51%; in that of `CCCSc1ncccc1C(=O)N1CCc2c(sc(NC(=O)c3ccccc3OC)c2C(=O)O)C1`, 61.59%.
Consider `CCCc1ccc(C(=O)Nc2sc3c(c2C(=O)O)CCN(C(=O)c2ccccc2Cl)C3)cc1`, for which the “% Inhibition” value was found to be 86.38%.
In the case of `CC(C)(C)c1ccc(C(=O)Nc2sc3c(c2C(=O)O)CCN(C(=O)c2ccccc2C(F)(F)F)C3)cc1` it was 80.87%; in that of `CSc1ccccc1C(=O)N1CCc2c(sc(NC(=O)c3ccccc3Cl)c2C(=O)O)C1`, 67.09%; in that of `Cn1cc(C(=O)N2CCc3c(sc(NC(=O)CCC4CCCC4)c3C(=O)O)C2)c2ccccc21`, 65.02%.
The result for `O=C(O)c1c(NC(=O)[C@]23C[C@H]4C[C@@H](C[C@H](C4)C2)C3)sc2c1CCN(C(=O)c1ccccc1C(F)(F)F)C2` reads 64.79%.
In the case of `Cc1ccccc1C(=O)N1CCc2c(sc(NC(=O)CCC3CCCC3)c2C(=O)O)C1` it was 76.07%.
For `COc1cccc(C(=O)N2CCc3c(sc(NC(=O)C4CCCCC4)c3C(=O)O)C2)c1OC`, the “% Inhibition” value turned out to be 61.06%.
The result for `CCCSc1ncccc1C(=O)N1CCc2c(sc(NC(=O)c3ccc4ccccc4c3)c2C(=O)O)C1` reads 67.03%; that for `CC(C)CC(=O)N1CCc2c(sc(NC(=O)c3ccccc3Cl)c2C(=O)O)C1`, 59.63%.
Take `Cc1ccccc1C(=O)N1CCc2c(sc(NC(=O)c3ccccc3)c2C(=O)O)C1`: the “% Inhibition” value is 80.08%.
In the case of `Cc1c(F)cccc1C(=O)N1CCc2c(sc(NC(=O)c3ccc4ccccc4c3)c2C(=O)O)C1` it was 73.27%; in that of `CSc1ncccc1C(=O)N1CCc2c(sc(NC(=O)c3ccc4ccccc4c3)c2C(=O)O)C1`, 64.54%.
For the compound `Cc1ccc(C(=O)N2CCc3c(sc(NC(=O)c4ccccc4)c3C(=O)O)C2)cn1`, the “% Inhibition” value came out at 82.41%.
As to `O=C(Nc1sc2c(c1C(=O)O)CCN(C(=O)c1cc3ccccc3s1)C2)c1ccco1`, the “% Inhibition” value was 96.65%.
The result for `CCc1ccc(C(=O)Nc2sc3c(c2C(=O)O)CCN(C(=O)c2cn(C)c4ccccc24)C3)cc1` reads 62.19%; that for `CCCc1ccc(C(=O)Nc2sc3c(c2C(=O)O)CCN(C(=O)CC(C)C)C3)cc1`, 84.72%.
As to `CCOc1ncccc1C(=O)N1CCc2c(sc(NC(=O)c3ccccc3)c2C(=O)O)C1`, the “% Inhibition” value was determined as 95.92%.
As for `CCCSc1ncccc1C(=O)N1CCc2c(sc(NC(=O)c3ccc(C(C)(C)C)cc3)c2C(=O)O)C1`, the “% Inhibition” value came out at 83.49%.
With `COc1cccc(C(=O)Nc2sc3c(c2C(=O)O)CCN(C(=O)c2ccccc2C)C3)c1`, the “% Inhibition” value amounted to 74.32%.
In the case of `COc1cccc(C(=O)Nc2sc3c(c2C(=O)O)CCN(C(=O)c2ccc(F)c(F)c2)C3)c1` it was 75.77%.
The result for `Cc1ccc(C)c(CC(=O)N2CCc3c(sc(NC(=O)c4ccc(C(C)(C)C)cc4)c3C(=O)O)C2)c1` reads 92.67%; that for `COc1ccc(OC)c(C(=O)N2CCc3c(sc(NC(=O)c4ccc(Cl)cc4)c3C(=O)O)C2)c1`, 70.67%.
The result for `O=C(O)c1c(NC(=O)C2CCCCC2)sc2c1CCN(C(=O)/C=C/c1ccc(Cl)cc1)C2` reads 67.5%; that for `O=C(Nc1sc2c(c1C(=O)O)CCN(C(=O)c1ccc(F)c(F)c1)C2)c1ccc2ccccc2c1`, 87.61%.
With `CC(CC(=O)Nc1sc2c(c1C(=O)O)CCN(C(=O)CC1CCCC1)C2)CC(C)(C)C` (stereo not drawn), the “% Inhibition” value was 81.9%.
`O=C(CCC1CCCC1)Nc1sc2c(c1C(=O)O)CCN(C(=O)c1ccc(Cl)cc1)C2`: the “% Inhibition” value amounted to 66.09%.
The result for `Cc1ccccc1C(=O)N1CCc2c(sc(NC(=O)[C@]34C[C@H]5C[C@@H](C[C@H](C5)C3)C4)c2C(=O)O)C1` reads 61.84%; that for `COc1ccc(OC)c(C(=O)N2CCc3c(sc(NC(=O)c4ccc5ccccc5c4)c3C(=O)O)C2)c1`, 86.36%; that for `CC(C)CC(=O)N1CCc2c(sc(NC(=O)c3ccccc3)c2C(=O)O)C1`, 98.72%.
In the case of `Cc1ccccc1C(=O)N1CCc2c(sc(NC(=O)c3ccco3)c2C(=O)O)C1` it was 90.41%; in that of `CC(=O)Nc1cccc(C(=O)N2CCc3c(sc(NC(=O)c4ccc(C(C)(C)C)cc4)c3C(=O)O)C2)c1`, 92.01%.
The result for `COc1ccc(OC)c(C(=O)N2CCc3c(sc(NC(=O)CC(C)CC(C)(C)C)c3C(=O)O)C2)c1` (stereo not drawn) reads 68.17%.
As for `CC(CC(=O)Nc1sc2c(c1C(=O)O)CCN(C(=O)c1ccc(Cl)cc1)C2)CC(C)(C)C` (stereo not drawn), the “% Inhibition” value stood at 63.48%.
In the case of `CCc1ccc(C(=O)Nc2sc3c(c2C(=O)O)CCN(C(=O)CCc2ccc(F)c(F)c2)C3)cc1` it was 85.13%; in that of `COc1cccc(C(=O)Nc2sc3c(c2C(=O)O)CCN(C(=O)Cc2cc(C)ccc2C)C3)c1`, 62.32%.
In the case of `CCCSc1ncccc1C(=O)N1CCc2c(sc(NC(=O)c3ccc(CCC)cc3)c2C(=O)O)C1` it was 79.09%; in that of `CSc1ccccc1C(=O)N1CCc2c(sc(NC(=O)c3ccc(Cl)cc3)c2C(=O)O)C1`, 71.86%; in that of `Cc1ccc(C(=O)N2CCc3c(sc(NC(=O)c4ccc(Cl)cc4)c3C(=O)O)C2)cn1`, 64.41%.
Take `CCCSc1ncccc1C(=O)N1CCc2c(sc(NC(=O)c3ccccc3Cl)c2C(=O)O)C1`: the “% Inhibition” value stood at 94.82%.
In the case of `CCCSc1ncccc1C(=O)N1CCc2c(sc(NC(=O)c3ccccc3)c2C(=O)O)C1` it was 86.6%; in that of `CCc1ccc(C(=O)Nc2sc3c(c2C(=O)O)CCN(C(=O)c2cc(OC)ccc2OC)C3)cc1`, 80.21%.
With `CCc1ccc(C(=O)Nc2sc3c(c2C(=O)O)CCN(C(=O)c2cccc4ccccc24)C3)cc1`, the “% Inhibition” value came out at 67.43%.
